# Where two headings read alike, the source gives them in different places.
# How the values were obtained:
# [1] = tested on: Enterococcus faecalis J 14365/08; set-up: method as in PMID 22365879; details: 48 h incubation; cited from earlier work
# Trichosporon asahii 1188 [2] = tested on: Trichosporon asahii 1188; set-up: method as in PMID 22365879; details: 48 h incubation; cited from earlier work
# [3] = tested on: Escherichia coli CCM 4517; set-up: method as in PMID 22365879; details: 48 h incubation; cited from earlier work
# [4] = tested on: Staphylococcus aureus CCM 4516/08; set-up: method as in PMID 22365879; details: 48 h incubation; cited from earlier work
# [5] = tested on: Staphylococcus epidermidis H 6966/08; set-up: method as in PMID 22365879; details: 48 h incubation; cited from earlier work
# [6] = tested on: Candida albicans ATCC 44859; set-up: method as in PMID 22365879; details: 48 h incubation; cited from earlier work
# [7] = tested on: Mycobacterium avium 330/88; set-up: method as in PMID 22365879; details: cited from earlier work
# [8] = tested on: Trichophyton interdigitale 445; assay: Antifungal microdilution broth MIC, T. interdigitale; type: cell-based
# [9] = tested on: Klebsiella pneumoniae D 11750/08; set-up: method as in PMID 22365879; details: 48 h incubation; cited from earlier work
# [10] = tested on: Mycobacterium tuberculosis 331/88 (H37Rv); set-up: method as in PMID 22365879; details: cited from earlier work
# [11] = tested on: Aspergillus fumigatus 231; set-up: method as in PMID 22365879; details: 48 h incubation; cited from earlier work
# Candida tropicalis 156 [12] = tested on: Candida tropicalis 156; set-up: method as in PMID 22365879; details: 48 h incubation; cited from earlier work
# [13] = tested on: Lichtheimia corymbifera 272; set-up: method as in PMID 22365879; details: 48 h incubation; cited from earlier work
# M. kansasii = tested on: M. kansasii; set-up: method as in PMID 22365879; details: range over M. kansasii strains; cited from earlier work
# M. kansasii 6509/96 [14] = tested on: M. kansasii 6509/96; set-up: method as in PMID 22365879; details: cited from earlier work
# [15] = tested on: Trichophyton interdigitale 445; set-up: method as in PMID 22365879; details: cited from earlier work
# [16] = tested on: ESBL-positive Klebsiella pneumoniae J 14368/08; set-up: method as in PMID 22365879; details: 48 h incubation; cited from earlier work
# [17] = tested on: Mycobacterium kansasii 235/80; set-up: method as in PMID 22365879; details: cited from earlier work
# Candida glabrata 20/I [18] = tested on: Candida glabrata 20/I; set-up: method as in PMID 22365879; details: 48 h incubation; cited from earlier work
# [19] = tested on: Pseudomonas aeruginosa CCM 1961; set-up: method as in PMID 22365879; details: 48 h incubation; cited from earlier work
# Candida krusei E28 [20] = tested on: Candida krusei E28; set-up: method as in PMID 22365879; details: 48 h incubation; cited from earlier work
# Trichosporon asahii 1188 [21] = assay: Antifungal microdilution broth MIC, T. asahii; type: cell-based
# [22] = tested on: Candida albicans ATCC 44859; assay: Antifungal microdilution broth MIC, C. albicans; type: cell-based
# [23] = tested on: Pseudomonas aeruginosa CCM 1961; assay: Antibacterial microdilution broth MIC, P. aeruginosa; type: cell-based; details: Pseudomonas aeruginosa
# [24] = tested on: Mycobacterium tuberculosis 331/88 (H37Rv); assay: In vitro antimycobacterial MIC, M. tuberculosis; type: cell-based
# Candida sp. = assay: Selectivity index for Candida sp. (IC50 HepG2/MIC); type: cell-based; details: all Candida species
# M. kansasii 6509/96 [25] = assay: In vitro antimycobacterial MIC, M. kansasii clinical isolate; type: cell-based; details: Mycobacterium kansasii
# Candida tropicalis 156 [26] = assay: Antifungal microdilution broth MIC, C. tropicalis; type: cell-based
# [27] = tested on: Aspergillus fumigatus 231; assay: Antifungal microdilution broth MIC, A. fumigatus; type: cell-based
# [28] = tested on: Mycobacterium avium 330/88; assay: In vitro antimycobacterial MIC, M. avium; type: cell-based
# [29] = tested on: Enterococcus faecalis J 14365/08; assay: Antibacterial microdilution broth MIC, E. faecalis; type: cell-based; details: Enterococcus faecalis
# [30] = tested on: Lichtheimia corymbifera 272; assay: Antifungal microdilution broth MIC, L. corymbifera; type: cell-based
# [31] = tested on: Escherichia coli CCM 4517; assay: Antibacterial microdilution broth MIC, E. coli; type: cell-based; details: Escherichia coli
# [32] = tested on: Staphylococcus epidermidis H 6966/08; assay: Antibacterial microdilution broth MIC, S. epidermidis; type: cell-based; details: Staphylococcus epidermidis
# [33] = tested on: ESBL-positive Klebsiella pneumoniae J 14368/08; details: 48 h incubation
# [34] = tested on: Staphylococcus aureus CCM 4516/08; assay: Antibacterial microdilution broth MIC, S. aureus; type: cell-based; details: Staphylococcus aureus
# Candida glabrata 20/I [35] = assay: Antifungal microdilution broth MIC, C. glabrata; type: cell-based; details: Nakaseomyces glabratus
# [36] = tested on: Klebsiella pneumoniae D 11750/08; assay: Antibacterial microdilution broth MIC, K. pneumoniae; details: 48 h incubation
# Candida krusei E28 [37] = assay: Antifungal microdilution broth MIC, C. krusei; type: cell-based; details: Pichia kudriavzevii
# [38] = tested on: Mycobacterium kansasii 235/80; assay: In vitro antimycobacterial MIC, M. kansasii 235/80; type: cell-based
structure (smiles),measurement,setting,value
"O=S(=O)(Nc1ncccn1)c1ccc(N=Cc2cc(Cl)ccc2O)cc1 [Compound 2c, 4-[(5-Chloro-2-hydroxybenzylidene)amino]-N-(pyrimidin-2-yl)benzenesulfonamide]",MIC EF 48 h,[1],>500 µM
same,MIC TA 48 h,Trichosporon asahii 1188 [2],125 µM
same,MIC EC 48 h,[3],>500 µM
same,MIC SA 48 h,[4],250 µM
same,MIC SE 48 h,[5],>500 µM
same,MIC CA 48 h,[6],125 µM
same,MIC M. avium 330/88 14 d,[7]; 14 d incubation,125 µM
same,MIC M. avium 330/88 21 d,[7]; 21 d incubation,125 µM
same,SI for TI,"[8]; SI = IC50 (HepG2)/MIC, Trichophyton interdigitale",inactive
same,MIC KP 48 h,[9],>500 µM
same,MIC Mtb. 331/88 14 d,[10]; 14 d incubation,125 µM
same,MIC Mtb. 331/88 21 d,[10]; 21 d incubation,250 µM
same,MIC AF 48 h,[11],>500 µM
same,MIC CT 48 h,Candida tropicalis 156 [12],>500 µM
same,MIC LC 48 h,[13],>500 µM
same,"MIC, M. kansasii strains",M. kansasii,8 to 32 µM
same,MIC M. kansasii 6509/96 7 d,M. kansasii 6509/96 [14]; 7 d incubation,16 µM
same,MIC M. kansasii 6509/96 14 d,M. kansasii 6509/96 [14]; 14 d incubation,32 µM
same,MIC M. kansasii 6509/96 21 d,M. kansasii 6509/96 [14]; 21 d incubation,32 µM
same,MIC TI 72 h,[15]; 72 h incubation,>500 µM
same,MIC TI 120 h,[15]; 120 h incubation,>500 µM
same,MIC KP-E 48 h,[16],>500 µM
same,MIC M. kansasii 235/80 7 d,[17]; 7 d incubation,8 µM
same,MIC M. kansasii 235/80 14 d,[17]; 14 d incubation,16 µM
same,MIC M. kansasii 235/80 21 d,[17]; 21 d incubation,32 µM
same,MIC CG 48 h,Candida glabrata 20/I [18],125 µM
same,MIC PA 48 h,[19],>500 µM
same,MIC CK 48 h,Candida krusei E28 [20],>500 µM
"CC(C)(C)c1ccc(O)c(C=Nc2ccc(S(=O)(=O)Nc3ncccn3)cc2)c1 [Compound 2j, 4-{[5-(Tert-butyl)-2-hydroxybenzylidene]amino}-N-(pyrimidin-2-yl)benzenesulfonamide]",MIC,"Trichosporon asahii 1188 [21]; Trichosporon asahii, 1188, 24 h, read-out: MIC TA 24 h",> 125 µM
same,MIC,"Trichosporon asahii 1188 [21]; Trichosporon asahii, 1188, 48 h, read-out: MIC TA 48 h",> 125 µM
same,MIC,"[22]; ATCC44859, 24 h, read-out: MIC CA 24 h",> 125 µM
same,MIC,"[22]; ATCC44859, 48 h, read-out: MIC CA 48 h",> 125 µM
same,MIC,"[23]; CCM1961, 24 h, read-out: MIC PA 24 h",> 125 µM
same,MIC,"[23]; CCM1961, 48 h, read-out: MIC PA 48 h",> 125 µM
same,MIC,"[24]; 336 h, 14 d incubation, read-out: MIC Mtb. 331/88 14 d",32 µM
same,MIC,"[24]; 504 h, 21 d incubation, read-out: MIC Mtb. 331/88 21 d",62.5 µM
same,SI for Candida sp.,Candida sp.,inactive
same,MIC,"[8]; Trichophyton interdigitale, 445, 72 h, read-out: MIC TI 72 h",62.5 µM
same,MIC,"[8]; Trichophyton interdigitale, 445, 120 h, read-out: MIC TI 120 h",62.5 µM
same,MIC,"[8]; Trichophyton interdigitale, 445, read-out: MIC for T. interdigitale",62.5 µM
same,MIC,"M. kansasii 6509/96 [25]; 6509/96, 168 h, 7 d incubation, read-out: MIC M. kansasii 6509/96 7 d",16 µM
same,MIC,"M. kansasii 6509/96 [25]; 6509/96, 336 h, 14 d incubation, read-out: MIC M. kansasii 6509/96 14 d",16 µM
same,MIC,"M. kansasii 6509/96 [25]; 6509/96, 504 h, 21 d incubation, read-out: MIC M. kansasii 6509/96 21 d",32 µM
same,MIC,"Candida tropicalis 156 [26]; Candida tropicalis, 156, 24 h, read-out: MIC CT 24 h",> 125 µM
same,MIC,"Candida tropicalis 156 [26]; Candida tropicalis, 156, 48 h, read-out: MIC CT 48 h",> 125 µM
same,MIC,"[27]; Aspergillus fumigatus, 231, 24 h, read-out: MIC AF 24 h",> 125 µM
same,MIC,"[27]; Aspergillus fumigatus, 231, 48 h, read-out: MIC AF 48 h",> 125 µM
same,MIC,"[28]; 330/88, 336 h, 14 d incubation, read-out: MIC M. avium 330/88 14 d",125 µM
same,MIC,"[28]; 330/88, 504 h, 21 d incubation, read-out: MIC M. avium 330/88 21 d",125 µM
same,MIC,"[29]; J14365/08, 24 h, read-out: MIC EF 24 h",> 125 µM
same,MIC,"[29]; J14365/08, 48 h, read-out: MIC EF 48 h",> 125 µM
same,MIC,"[30]; Lichtheimia corymbifera, 272, 24 h, read-out: MIC LC 24 h",> 125 µM
same,MIC,"[30]; Lichtheimia corymbifera, 272, 48 h, read-out: MIC LC 48 h",> 125 µM
same,MIC,"[31]; CCM4517, 24 h, read-out: MIC EC 24 h",> 125 µM
same,MIC,"[31]; CCM4517, 48 h, read-out: MIC EC 48 h",> 125 µM
same,MIC,"[32]; H6966/08, 24 h, read-out: MIC SE 24 h",> 125 µM
same,MIC,"[32]; H6966/08, 48 h, read-out: MIC SE 48 h",> 125 µM
same,MIC KP-E 48 h,[33],>125 µM
same,MIC,"[34]; CCM4516, 24 h, read-out: MIC SA 24 h",> 125 µM
same,MIC,"[34]; CCM4516, 48 h, read-out: MIC SA 48 h",> 125 µM
same,MIC,"Candida glabrata 20/I [35]; 24 h, read-out: MIC CG 24 h",> 125 µM
same,MIC,"Candida glabrata 20/I [35]; 48 h, read-out: MIC CG 48 h",> 125 µM
same,MIC KP 48 h,[36],>125 µM
same,MIC,"Candida krusei E28 [37]; E28, 24 h, read-out: MIC CK 24 h",> 125 µM
same,MIC,"Candida krusei E28 [37]; E28, 48 h, read-out: MIC CK 48 h",> 125 µM
same,MIC,"[38]; 235/80, 168 h, 7 d incubation, read-out: MIC M. kansasii 235/80 7 d",16 µM
same,MIC,"[38]; 235/80, 336 h, 14 d incubation, read-out: MIC M. kansasii 235/80 14 d",32 µM
same,MIC,"[38]; 235/80, 504 h, 21 d incubation, read-out: MIC M. kansasii 235/80 21 d",62.5 µM

# From article PMC6151383 (Molecules : A Journal of Synthetic Chemistry and Natural …, 2017)
